# No end group written: not given here.
# Legend:
# [1] = test system: platelets
# [2] = test system: platelet-rich green fluorescent fibrin clot; assay: In vitro thrombolytic capacity in PPFC on platelet-rich fluorescent fibrin clots; type: cell-based; settings: flow over clot
# Protocol: Glass microscope slides were incubated with collagen suspension in a circular region for 30 min (similar to slide preparation for PPFC-based binding studies) and then gently washed with 1×PBS. PRP with AlexaFluor 488-conjugated fibrinogen (6% v/v of 1.5 mg/mL, green fluorescent) was briefly mixed with α-thrombin and 0.5 M CaCl2), to final concentrations of 5 nM and […] respectively, to initiate clot formation and the mixture was pipetted (100 μl volume) onto the collagen-coated surface region. The clot was allowed to incubate for 1 h and then gently washed with 1×PBS to remove loosely bound components. The slide thus formed with platelet-rich green fluorescent fibrin clot on its surface, was sealed into the parallel plate flow chamber (PPFC) system, to be imaged under the inverted fluorescence microscope. The objective was focused on an area at the edge of the clot such that the initial field of view enabled observation of the green fluorescence of the fibrin clot throughout the whole area of view, and the clot lysis could then be observed as the loss of this fluorescence. […] In this experimental set-up, sPLA2-triggered degradation of clot-bound PMIN vesicles and resultant SK release was expected to convert the plasminogen to plasmin and thereby lyse the fibrin of the clot.
# [3] = test system: FeCl3-induced carotid artery thrombus; assay: Targeted thrombolysis in vivo (delay of vessel occlusion, FeCl3 carotid thrombosis); set-up: species or system mouse; settings: ~400 IU SK where loaded, injected ~5 min after thrombus induction
# Excerpt: For targeted thrombolytic capacity assessment, Rhodamine 6G solution was first injected into the right jugular vein of the mouse to render direct fluorescent labeling of circulating platelets and the FeCl3-induced thrombus was created in the carotid as before, such that the formation of the thrombus and extent of vessel occlusion can be observed directly by monitoring the fluorescent platelets in the artery with intra-vital microscopy. For this, the carotid artery was thrombosed as before and […] of Rhodamine 6G solution was injected into the right jugular vein that results in direct fluorescent labeling of circulating platelets. This allows for imaging platelet-rich thrombus formation (and lysis) in real time. […] The effect of these various treatments on delaying the thrombus growth over time was imaged by intravital microscopy, with images recorded for 10 s every minute for the first 10 min and then 10 s every other minute until the end of the experiment. […] The end points of the experiment were: 1) when blood flow had ceased for >30 s due to vessel occlusion, or 2) if occlusion was not observed in 30 min after SK (free or vesicle-encapsulated) administration. […]
Substance,activation of platelets by aggregometry [1],time to clot lysis (loss of green fluorescence) [2],delay in vessel occlusion [3]
TRYLRIHPQSWVHQI-NH2 [VBP],inability of both VBP and CBP to activate platelets,–,–
streptokinase [free SK],–,≤ 15 min,keeps the artery significantly open due to persistent thrombolysis

# Source: patent US12161698B2, “Synthetic platelets” (CASE WESTERN RESERVE UNIVERSITY, priority 2011, dated 2024)
